# Reference: US6136814A (priority 1997, dated 2000)
# Values joined by “and” are separate entries in the source; they are usually repeats but may differ in a detail not shown here. Identical values can stand only once.
# Key:
# aqueous solubility = type: physicochemical; settings: water, determined experimentally
# [1] = effect of CO2 on pH of aqueous acyclovir solution under accelerated conditions (Example 6); type: physicochemical
# Description: The desiccators were evacuated and filled with the CO2 standards three consecutive times at the beginning of the experiment, and the filling process was repeated each week and each time the desiccators were opened for removing samples. The pressure in the desiccators was maintained at 1 atm. The pH was measured at various time intervals.
# [2] = pH at which precipitation or haziness is observed; type: physicochemical
# Source text: As indicated earlier, the pH of aqueous acyclovir sodium must be maintained above the pHp to avoid the formation of precipitates.
# [3] = measured pH drop over 21 months under normal atmospheric conditions (Example 9); type: physicochemical
# Description: For each vial, one half was stored in the upright position and the other half was stored in the inverted position. The pH was measured over time using a standard calibrated pH meter.
# [4] = calculated pH over time, 20 mL vial, normal atmospheric storage (Example 8)
# Description: (§1) The atmospheric CO2 content, measured using a Dickson, Model CO2 X carbon dioxide recorder, was measured as 0.07% by volume and this value was used in the calculation.
# [5] = compatibility with container and seal materials, pH on storage (Example 3); type: physicochemical; settings: polypropylene vials, RT and 40° C., three months
# Description: At various time intervals, the samples were tested for pH. The pH was measured using a calibrated standard pH meter.
# [6] = pH stability of aqueous acyclovir sodium under accelerated CO2 permeation conditions (Example 2); type: physicochemical; settings: after 3 weeks
# Source text: The solution was transferred, under a nitrogen atmosphere, to autoclaved filling equipment contained within a laminar air-flow hood to avoid particle and microbiological contamination. […] The filtered bulk solution and containers were purged with nitrogen during the filling process to avoid CO2 absorption. The process was repeated for polyethylene terephthalate vials and Daikyo Resin CZ vials (sold by Daikyo Gomu Seiko, Ltd, reported in some references as polymethylpentene).
# The samples were tested under accelerated CO2 storage conditions. The samples were placed in three different chambers with elevated CO2 atmospheres, maintained at a concentration of approximately 2%, 5%, and 10% CO2 by volume, for 3 weeks. The pH was measured at various times using a calibrated standard pH meter.
# [7] = calculated pH over time, 10 mL vial, normal atmospheric storage (Example 7)
# Description: as §1
# [8] = cited from earlier work
# [9] = depending on the desired concentration; cited from earlier work
# [10] = effect of CO2 on pH of unbuffered aqueous sodium hydroxide in polypropylene vials (Example 1); type: physicochemical
# Source text: This example represents the effect of CO2 on the pH of an unbuffered aqueous sodium hydroxide solution. […] The solution was placed in a series of identical polypropylene vials which were sealed and separated into two groups (Groups A and B). The vials were identical in every relevant parameter, including average wall thickness, surface area, and stoppers. The sodium hydroxide solution in all samples were taken from the same lot and each vial was filled under identical filling conditions. Samples in group A were stored under normal atmospheric conditions. Samples in group B were placed in a 5.8 L desiccator along with a beaker containing 50 mL of 1N aq. HCl (0.05 moles HCl). After carefully adding 100 mL of 0.5M NaHCO3 (0.05 moles NaHCO3) to the HCl solution, the desiccator was immediately sealed to prevent escape of the resulting CO2 (approximately 0.05 moles CO2). The calculated concentration of CO2 in the chamber was approximately 18% by volume. The samples were allowed to stand for 3 weeks under the aforesaid conditions. The pH of the samples in the containers was measured using a calibrated standard pH meter.
smiles,measurement,setting,value
Nc1nc2c(ncn2COCCO)c(=O)[nH]1 [acyclovir sodium],solubility,aqueous solubility,644 mg/mL
same,initial pH in the absence of CO2,"[1]; 54.9 mg/mL, with purging headspace",11.3
same,Measured pH,"[1]; 2.00% CO2, 10 mL vials, 14 days",11.10
same,Measured pH,"[1]; 2.00% CO2, 10 mL vials, 16 days",11.08
same,Measured pH,"[1]; 2.00% CO2, 10 mL vials, 20 days",11.03
same,Measured pH,"[1]; 2.00% CO2, 10 mL vials, 23 days",11.03
same,Measured pH,"[1]; 2.00% CO2, 10 mL vials, 27 days",11.01
same,Measured pH,"[1]; 2.00% CO2, 20 mL vials, 14 days",11.12
same,Measured pH,"[1]; 2.00% CO2, 20 mL vials, 16 days",11.10
same,Measured pH,"[1]; 2.00% CO2, 20 mL vials, 20 days",11.07
same,Measured pH,"[1]; 2.00% CO2, 20 mL vials, 23 days",11.05
same,Measured pH,"[1]; 2.00% CO2, 20 mL vials, 27 days",11.02
same,Measured pH,"[1]; 10.1% CO2, 10 mL vials, 6 days",10.94
same,Measured pH,"[1]; 10.1% CO2, 10 mL vials, 9 days",10.87
same,Measured pH,"[1]; 10.1% CO2, 10 mL vials, 14 days",10.70
same,Measured pH,"[1]; 10.1% CO2, 20 mL vials, 6 days",10.97
same,Measured pH,"[1]; 10.1% CO2, 20 mL vials, 9 days",10.90
same,Measured pH,"[1]; 10.1% CO2, 20 mL vials, 14 days",10.74
same,pH at which precipitation becomes apparent,"[2]; 54.9 mg/mL aqueous solution, actual observations",< 10.8
same,pH below which haziness is observed,[2]; about 55 mg/mL acyclovir sodium,< 10.8
same,precipitates,[3]; after 21 months,no precipitates were detected
same,acceptable for parenteral administration,"[3]; normal atmospheric conditions, upright or inverted",at least 21 months
same,shelf life,"[3]; real time, normal atmospheric conditions",at least 21 months
same,shelf life,[4],greater than 24 months
same,precipitation upon visual inspection,[5],no precipitation was observed
same,impurities by HPLC,[5]; Teflon coated stoppers,no significant impurities were generated
same,precipitate,"[6]; 2%, 5% and 10% CO2",no precipitate was observed
same,pH decline,[6]; 5% CO2,0.33 pH units
same,pH decline,[6]; 10% CO2,0.48 pH units
same,shelf life,[7],greater than 24 months
"Nc1nc2c(ncn2COCCO)c(=O)[nH]1 [acyclovir, 2-amino-1,9-dihydro-9-[(2-hydroxy-ethoxy)methyl]-6H-purin-6-one]","water solubility, neutral form","[8]; undissociated acyclovir, in words",virtually insoluble in water
same,"aqueous solubility, neutral form","[8]; water, ambient temperature, Pharm. Res., vol. 8, p. 1087 (1991)",6.2 mM and ~6.2 mM
same,pH required to maintain an aqueous solution,[9],10-11
[Na+].[OH-] [sodium hydroxide],pH,"[10]; Group A normal atmosphere, 1 week",11.22
same,pH,"[10]; Group A normal atmosphere, 3 weeks",11.21
same,pH,"[10]; Group A normal atmosphere, initial",11.31
same,pH,"[10]; Group B CO2 chamber (approx. 18% CO2 by vol.), 3 weeks",6.37
same,pH,"[10]; Group B CO2 chamber (approx. 18% CO2 by vol.), initial",11.31
